According to patent US20220106304A1, “Transcription Factor BRN2 Inhibitory Compounds as Therapeutics and Methods for Their Use” (The University of British Columbia, priority 2018, published 2022):

How the values were obtained:
BRN2 = molecular target: T1, BRN2 (Homo sapiens, UniProt P20265); assay: cell-based; settings: negative = activation; for inhibition at 10 µM: read-out: % BRN2 Inhibition (10 μM), 10 μM compound, 24 hours, 42D^ENZR cells stably expressing BRN2-luciferase reporter; for inhibition at 30 µM: read-out: % BRN2 Inhibition (30 μM), 30 μM compound, 24 hours, 42D^ENZR cells stably expressing BRN2-luciferase reporter
T1 sequence (P20265 1-443): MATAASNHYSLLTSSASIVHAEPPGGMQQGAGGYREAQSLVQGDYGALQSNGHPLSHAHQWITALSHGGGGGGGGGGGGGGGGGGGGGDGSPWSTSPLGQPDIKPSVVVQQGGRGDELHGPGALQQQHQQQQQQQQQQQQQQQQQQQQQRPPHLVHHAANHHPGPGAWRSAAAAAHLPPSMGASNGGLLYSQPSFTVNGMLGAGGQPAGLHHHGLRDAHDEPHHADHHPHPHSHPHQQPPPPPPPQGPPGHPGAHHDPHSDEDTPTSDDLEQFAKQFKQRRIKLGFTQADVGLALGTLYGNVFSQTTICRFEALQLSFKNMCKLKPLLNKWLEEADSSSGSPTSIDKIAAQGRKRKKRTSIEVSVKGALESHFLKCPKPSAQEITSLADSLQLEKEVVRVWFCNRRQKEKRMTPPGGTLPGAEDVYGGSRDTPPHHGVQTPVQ
From the text: Decreased expression of luciferase protein is validated via western blot to confirm downregulation and avoid false positive molecules that inhibit luciferase protein activity and not BRN2-drive luciferase expression. Molecules are prioritized by their inhibition potency to measure direct interaction with BRN2 in Step 2.
In TABLES 1 and 2, when a single value is mentioned in columns Met Stab % and T½, it refers to compound's stability in MLM and when two values are given they represent HLM/MLM. There is a distinction in TABLES 1 and 2 difference between “Active” and “Specific” or “Specificity”. Compounds are first tested to quantify inhibition of BRN2 transcriptional activity in a luciferase assay to determine “Activity” at […] and 30 μM concentrations. […] Where data is not available “na” is inserted. Where data has yet to be calculated the notation “nc” is used.

[1] = Liver microsome metabolic stability, HLM; type: in vitro ADME; settings: HLM (first of two values), 1 μM compound, 0.25 mg/mL protein; for Met Stab % (60 mins HLM/MLM): percent remaining at 60 min, 1 mM NADPH; for half-life at 1 µM: human, liver microsomes, pH 7.4, read-out: T1/2 in (mins HLM/MLM)
Procedure: (§1) Potassium phosphate buffer (Kphos) was prepared by adding 0.647 g potassium phosphate monobasic (KH2PO4) and 3.527 g potassium phosphate dibasic ([…]) to 400 mL of Milli-Q water. pH of the buffer was adjusted to 7.4 and volume was made up to 500 mL.
(§2) Microsomes (20 mg/mL) were diluted in KH2PO4 buffer to prepare a concentration of 0.357 mg/mL.
(§3) Stock solutions of BRN2 inhibitors were prepared in DMSO at a concentration of 1 mM
(§4) A stock solution of 3.33 mM NADPH (3.33×) was prepared by dissolving appropriate amount of NADPH in KH2PO4 buffer.
(§5) Total Incubation volume: 100 μL
(§6) Compound concentration: 1 μM
(§7) Protein Concentration: 0.25 mg/mL
(§8) An 1120 μL aliquot of Kphos buffer (50 mM, pH 7.4) containing liver microsomes (0.357 mg/mL) were added to individual 2 mL tubes (final concentration 0.25 mg/mL). Test compounds (1 mM) and positive controls were directly spiked into respective tubes to prepare a concentration of 1.428 μM (final concentration 1 μM). From the above mix, 70 μL was added to individual wells of 96 well reaction plates and pre-incubated in a 37° C. water bath for 5 min. All the reactions were initiated by adding 30 μL of 3.33 mM NADPH (final concentration 1 mM). Reactions without NADPH and buffer controls (minus NADPH) at 0 min and 60 min were also incubated to rule out non-NADPH metabolism or chemical instability in the incubation buffer. All reactions were terminated using 100 μL of ice-cold acetonitrile containing internal standard at 0, 5, 15, 30 and 60 min. The plates were centrifuged at 4000 RPM for 15 min and 100 μL aliquots were submitted for analysis by LC-MS/MS.
(§9) Samples were monitored for parent compounds disappearance in MRM mode using LC-MS/MS.
(§10) The percent remaining of test compounds and positive control in each sample was determined by considering peak area ratio in the 0 minute sample as 100%. The Half-life of compounds in microsomes is calculated by formula:
(§11) Half-life (t½) (min)=0.693/k, where k is gradient of line determined from plot of peak area ratio (compound peak area/internal standard peak area) against time.
(§12) In vitro intrinsic clearance (CL'int) (units in mL/min/kg) was calculated using the formula.
(§13) [formula] • For liver microsomes, scaling factor used was 45 mg microsomal protein per gm liver. • Indicates liver weight (gm) which varies species wise. For mice the liver weights are 90 gm.
(§14) Where data is not available “na” is inserted.

[2] = Liver microsome metabolic stability, MLM; type: in vitro ADME; settings: MLM (single value or second of two), 1 μM compound, 0.25 mg/mL protein; for Met Stab % (60 mins HLM/MLM): percent remaining at 60 min, 1 mM NADPH; for half-life at 1 µM: mouse, liver microsomes, pH 7.4, read-out: T1/2 in (mins HLM/MLM)
Procedure: as §1, §2, §3, §4, §5, §6, §7, §8, §9, §10, §11, §12, §13, §14

Row | SMILES | inhibition at 10 µM (BRN2) [%] | inhibition at 30 µM (BRN2) [%] | Met Stab % (60 mins HLM/MLM) [1] | half-life at 1 µM [1] [min] | Met Stab % (60 mins HLM/MLM) [2] | half-life at 1 µM [2] [min]
1 | c1ccc2c(c1)CCC2c1cnn(-c2nc3ccccc3s2)c1 (stereo not shown) [VPC-7-43] | 2 | 41 | 20% | 27 | 5% | 14
2 | c1ccc2c(c1)CCC2c1ccc(-c2nc3ccccc3s2)o1 (stereo not shown) [VPC-7-44] | 83 | 93 | 62% | > 60 | 44% | 52
3 | Cn1c(-c2ccc(-c3ccccc3F)o2)nc2c(F)cccc21 [VPC-18-31, 4-Fluoro-2-(5-(2-fluorophenyl)furan-2-yl)-1-methyl-1H-benzo[d]imidazole] | 67.9 | 77.8 | 17% | 2 | 0% | 
4 | O=[N+]([O-])c1ccc2nc(-c3ccc(-c4ccccc4F)o3)[nH]c2c1 [VPC-18-32, 2-(5-(2-Fluorophenyl)furan-2-yl)-6-nitro-1H-benzo[d]imidazole] | 83.7 | 95.5 | 20% | 26 | 4% | 12
5 | c1ccc(-c2nc(-c3cc4ccccc4o3)cs2)cc1 [VPC-18-33, 4-(Benzofuran-2-yl)-2-phenylthiazole] | 22.4 | 57.2 | 30% | 36 | 1% | 10
6 | COc1ccccc1-c1ccc(-c2nc3ccccc3n2C)o1 [VPC-18-35, 2-(5-(2-Methoxyphenyl)furan-2-yl)-1-methyl-1H-benzo[d]imidazole] | 51.6 | 95.8 | 4% | 13 | 0% | 5
7 | CCn1c(-c2ccc(-c3ccccc3)o2)nc2ccccc21 [VPC-18-36, 1-Ethyl-2-(5-phenylfuran-2-yl)-1H-benzo[d]imidazole] | 57.5 | 93.4 | 15% | 22 | 2% | 13
8 | Cn1c(-c2ccc(-c3ccc(F)cc3F)o2)nc2ccccc21 [VPC-18-41, 2-(5-(2,4-Difluorophenyl)furan-2-yl)-1-methyl-1H-benzo[d]imidazole] | 57.5 | 91.1 | 0/0% |  | 0/0% | 
9 | Cn1c(-c2ccc(-c3ccccc3)o2)nc2ccc(Cl)cc21 [VPC-18-42, 6-Chloro-1-methyl-2-(5-phenylfuran-2-yl)-1H-benzo[d]imidazole] | 77.3 | 76.8 | 15% | 23 | 1% | 11
10 | Cn1c(-c2csc(-c3ccccc3F)n2)nc2ccc(F)cc21 [VPC-18-45, 4-(6-Fluoro-1-methyl-1H-benzo[d]imidazol-2-yl)-2-(2-fluorophenyl)thiazole] | 7.53 | 47.2 | 35% | 42 | 22% | 32
11 | Cn1c(-c2ccc(-c3ccccc3)o2)nc2ccc(S(N)(=O)=O)cc21 [VPC-18-47, 1-Methyl-2-(5-phenylfuran-2-yl)-1H-benzo[d]imidazole-6-sulfonamide] | 39.8 | 82.1 | 54% | > 60 | 53% | > 60
12 | O=[N+]([O-])c1ccc2nc(-c3csc(-c4ccco4)n3)[nH]c2c1 [VPC-18-48, 2-(Furan-2-yl)-4-(6-nitro-1H-benzo[d]imidazol-2-yl)thiazole] | -6.56 | 91.2 | 9% | 17 | 2% | 10
13 | Cc1c(-c2csc(-c3ccco3)n2)oc2ccccc12 [VPC-18-53, 2-(Furan-2-yl)-4-(3-methylbenzofuran-2-yl)thiazole] | 78.1 | 84.5 | 39% | 42 | 2% | 2
14 | FC(F)(F)c1ccc2cc(-c3csc(-c4cc[nH]c4)n3)oc2c1 [VPC-18-111] | 96.2 | 98.6 |  |  | 38% | 48
15 | c1ccc2c(-c3cnc(-c4ccoc4)s3)coc2c1 [VPC-18-112] | 41.8 | 81.6 |  |  | 1% | 9
16 | Oc1ccc2cc(-c3csc(-c4ccco4)n3)oc2c1 [VPC-18-113] | 94 | 94 |  |  | 3% | 12
17 | Clc1ccc2cc(-c3csc(C4CCCO4)n3)oc2c1 (stereo not shown) [VPC-18-114] | 92 | 95 |  |  | 14% | 25
18 | COc1ccc2cc(-c3csc(-c4ccco4)n3)oc2c1 [VPC-18-118] | 74 | 92.5 |  |  | 1% | 9
19 | FC(F)(F)c1ccc2cc(-c3coc(-c4ccco4)n3)oc2c1 [VPC-18-120] | 88.9 | 88.8 |  |  | 6% | 13
20 | Clc1ccc2cc(-c3coc(-c4ccco4)n3)oc2c1 [VPC-18-121] | 92.7 | 93.5 |  |  | 0% | 8
